Measured values taken from PMC8044163, “Vitamin D and lumisterol derivatives can act on liver X receptors (LXRs)” (Scientific Reports, 2021).
pEC50: −log10 of the molar value. Where two headings read alike, the source gives them in different places.

Tests used:
[1] = test system: LXR-response element (LXRE)-driven reporter in CHO cells; assay: LXRE-driven luciferase reporter assay in CHO cells; type: cell-based; settings: 10^–7 M, CHO and HaCaT cells (Fig. 4C)
Procedure: The effects of vitamin D3 and L3 hydroxyderivatives were tested on the LXRE transcriptional activity using pGreenFire1-LXRE-in-ApoE Lentivirus (System Biosciences, Palo Alto, CA). This plasmid was transduced in CHO and HaCaT cells following the manufacture’s protocol and the cells used as a stable LXRE expressed tool. Briefly, the virus was transduced into the cells using TransDux MAX Lentivirus Transduction Enhancer (System Biosciences, Palo Alto, CA) and screened to select the transduced cells using puromycin. The transduced cells were treated with the compounds for 24 h in media containing 5% cFBS (charcoal-treated fetal bovine serum) and the luminescence was read by ONE-Glo Luciferase Assay System (Promega, Madison, WI) using Cytation 5 (BioTek, Winooski, VT).

LBD of LXRβ = target: T1, LBD of LXRβ (Homo sapiens, UniProt P55055); assay: LanthaScreen TR-FRET LXRβ coactivator assay (LXR binding assay); type: biochemical; settings: agonist; average values; read-out: LXRβ EC50
T1 construct: purchased Thermo Fisher Scientific
T1 sequence (P55055 222-460 limits assumed): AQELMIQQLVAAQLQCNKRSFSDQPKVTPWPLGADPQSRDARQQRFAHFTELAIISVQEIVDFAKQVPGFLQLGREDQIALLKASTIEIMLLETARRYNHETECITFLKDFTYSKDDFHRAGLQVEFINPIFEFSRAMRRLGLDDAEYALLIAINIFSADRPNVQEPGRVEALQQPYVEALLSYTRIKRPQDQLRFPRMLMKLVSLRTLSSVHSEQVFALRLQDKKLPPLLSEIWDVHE
Procedure: Binding assays of graded concentrations of vitamin D3 or lumisterol hydroxyderivatives to LXRα/β were performed using the LanthaScreen TR-FRET LXRα/β Coactivator kit (Thermo Fisher Scientific, Inc., Waltham, MA) following the manufacture’s protocol. Briefly, after addition of LXRα/β-LBD to the derivatives, a mixture of peptide (Fluorescein-TRAP220/DRIP-2 for LXRα or Fluorescein-D22 for LXRβ) and antibody (Tb-anti-GST) was added to the reaction followed by incubation in room temperature for 2 h. TR-FRET ratio was calculated by dividing the emission at 520 nm by the emission at 495 nm using Synergy neo2 (BioTek, Winooski, VT).

ABCA1 = assay: qPCR of ABCA1 in HaCaT keratinocytes; type: cell-based, human; settings: 10^–7 M
Procedure: HaCaT keratinocytes were cultured as described previously. For RNA isolation the cells were maintained in TPP tissue culture petri dishes (Ø60 mm, 22.1 cm^2) in DMEM containing 10% cFBC to reach semi-confluence and then exposed to 10^–7 M compounds or a corresponding concentration of ethanol solvent.
RNA isolated from either fibroblasts, HaCaT cells or brain was submitted for cDNA synthesis (High Capacity cDNA Reverse Transcription Kit with RNase Inhibitor, Applied Biosystems) following the manufacturers’ protocols. RT-PCR was carried out using Cyber green, in triplicates; as previously described. Approximately, 750 ng of cDNA was used for PCR reactions. GAPDH and CIC-B were used as internal controls. Primer sequences are listed in Supplementary Table 27. Data were analyzed using GraphPad Prism statistical software one way ANOVA or t-test, where appropriate; *p < 0.05; **p < 0.01; ***p < 0.001.

LXRα = target: T2, LXRα (Homo sapiens, UniProt Q13133); assay: Ligand induced translocation of LXRα to the nucleus, immunofluorescence in HaCaT; type: cell-based; settings: 10^−7 M, 24 h
T2 construct: endogenous in cells; host or cells: HaCaT keratinocytes
T2 sequence (Q13133 1-447): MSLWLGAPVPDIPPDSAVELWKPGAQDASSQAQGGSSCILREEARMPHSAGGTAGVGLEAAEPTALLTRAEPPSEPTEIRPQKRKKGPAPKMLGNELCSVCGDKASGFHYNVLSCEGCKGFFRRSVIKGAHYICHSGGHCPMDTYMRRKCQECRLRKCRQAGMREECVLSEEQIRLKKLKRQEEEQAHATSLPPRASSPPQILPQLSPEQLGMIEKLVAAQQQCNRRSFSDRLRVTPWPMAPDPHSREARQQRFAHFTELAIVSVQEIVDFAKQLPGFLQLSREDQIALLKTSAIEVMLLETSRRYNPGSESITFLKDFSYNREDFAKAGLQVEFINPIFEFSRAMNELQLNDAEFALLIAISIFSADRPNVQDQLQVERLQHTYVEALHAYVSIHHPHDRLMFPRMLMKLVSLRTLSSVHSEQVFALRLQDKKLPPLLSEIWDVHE
Procedure: HaCaT cells were plated in DMEM plus 5% cFBS either on a sterile glass cover slip placed in a well of a 6-well plates for immunofluorescence (IF) assays or TPP Petri dishes for image-stream flow cytometry, and treated with 10^–7 M D3- or L3-hydroxyderivatives or 0.1% ethanol (vehicle) as a negative control was added to each well, and the cells were incubated for 12 or 24 h at 37 °C with 5% CO2. For IF the cells were fixed in 4% paraformaldehyde for 15 min, incubated in 0.5% Triton X-100 in phosphate-buffered saline (PBS) for 5 min, and washed 3 times in PBS. After blocking with 2% bovine serum albumin (BSA) in PBS for 1 h at room temperature, the cells were treated with an anti-LXRα antibody (Novus Biologicals, LLC, Centennial, CO) at 1:200 in PBS supplemented with 2% BSA overnight in 4 °C. After washing the slides were incubated with a mouse anti-rabbit IgG-FITC (Santa Cruz Biotechnology, Inc, Dallas, TX) at 1:200 dilution for 1.5 h at 37 °C. After washing the slides were mounted using propidium iodide (PI) (Vector Labs, Burlingame, California) as a nuclear counterstain. The slides were examined using a KEYENCE America BZ-X710 Fluorescence Microscope (Itasca, IL). The images were subsequently analyzed using the JACoP plugin for colocalization analysis with ImageJ[74]. Five separate high-power field (40×) images were converted to grayscale and analyzed for each condition. Manders’ coefficient (M1), calculated using a preset threshold, was used to quantify the degree of colocalization between PI and LXRα with 0 representing no colocalization, and 1 representing perfect colocalization.

ABCA1 gene = settings: HaCaT cells, 10^–7 M, microarray GSE117351 ref 44, cited from earlier work

SMILES	LXRE luciferase (transcriptional) activity [1]	pEC50 (LBD of LXRβ)	ABCA1 RNA expression (qPCR) (ABCA1)	translocation of LXRα to the nucleus (immunofluorescence, Manders' coefficient) (LXRα)	ABCA1 expression, stimulation (ABCA1 gene; 6 h) [times]	ABCA1 expression, stimulation (ABCA1 gene; 24 h) [fold]
C=C1C(=CC=C2CCCC3(C)C2CCC3C(C)(O)CC(O)CC(C)C)CC(O)CC1O (centres unmarked) [1,20,23(OH)3D3]	strongest stimulatory effects	5.80	–	–	–	–
C=C1/C(=C\C=C2/CCC[C@]3(C)[C@@H]([C@H](C)CCCC(C)(C)O)CC[C@@H]23)C[C@@H](O)C[C@@H]1O [1,25(OH)2D3, reference compound]	strongest stimulatory effects	4.85	stimulation	induced translocation	2.4	2.4
C=C1CC[C@H](O)C/C1=C/C=C1\CCC[C@@]2(C)[C@H]1CC[C@@H]2[C@@](C)(O)CCCC(C)C [20(OH)D3]	–	5.59	stimulation	induced translocation	–	–
C=C1CCC(O)CC1=CC=C1CCCC2(C)C1CCC2C(C)(O)CC(O)CC(C)C (centres unmarked) [20,23(OH)2D3]	–	4.59	–	–	2.8	2.3
